Experimental data taken from patent US4550078A, “Method for the quantitative determination of individual polyamine components in a mixture” (Amano Seiyaku Kabushiki Kaisha, priority 1982, dated 1985).
Where two headings read alike, the source gives them in different places. Blank lines part the entries; values can stand above or below the molecule they belong to.

Legend:
putrescine oxidase [1] = biological target: T1, putrescine oxidase (Kocuria rosea, UniProt P40974); details: cited from earlier work
T1 sequence (P40974 1-478): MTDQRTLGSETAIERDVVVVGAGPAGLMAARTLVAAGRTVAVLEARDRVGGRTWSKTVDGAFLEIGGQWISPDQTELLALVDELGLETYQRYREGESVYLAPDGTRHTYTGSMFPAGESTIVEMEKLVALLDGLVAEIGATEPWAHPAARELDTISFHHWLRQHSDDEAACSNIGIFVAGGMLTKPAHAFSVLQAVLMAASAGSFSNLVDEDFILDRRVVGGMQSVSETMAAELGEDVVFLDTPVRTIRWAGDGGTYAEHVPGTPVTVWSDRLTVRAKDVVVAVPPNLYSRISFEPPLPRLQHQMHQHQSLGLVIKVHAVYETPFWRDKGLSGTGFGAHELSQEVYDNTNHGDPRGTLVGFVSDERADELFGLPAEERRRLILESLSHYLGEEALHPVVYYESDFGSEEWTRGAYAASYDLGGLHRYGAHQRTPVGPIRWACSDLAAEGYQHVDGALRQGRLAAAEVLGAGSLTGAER

polyamine oxidase PC-3 [2] = details: cited from earlier work
[3] = tested on: polyamine oxidase PC-3 followed by putrescine oxidase; assay: Two-step reaction: polyamine oxidase PC-3, then putrescine oxidase; assay type: biochemical; details: for absorbance after the first step / increment of absorbance in the second step / absorbance after the second step: 505 nm; for absorbance after the first step: PC-3 about 0.05 unit, acetate buffer pH 5.0; for increment of absorbance in the second step: after addition of putrescine oxidase; for absorbance after the second step: putrescine oxidase about 0.5 unit, pH 8-8.5, 5 minutes; for hydrogen peroxide produced per mole of the substrate in the first step: polyamine oxidase PC-3; for hydrogen peroxide produced per mole of the substrate in the second step: putrescine oxidase
polyamine oxidase AT-1 [4] = details: cited from earlier work
polyamine oxidase PC-3 [5] = assay: Enzymatic oxidative decomposition by polyamine oxidase PC-3, colorimetric determination of hydrogen peroxide; assay type: biochemical; details: for Activity of the enzyme on the substrate: N8-acetylspermidine only if the concentration of the enzyme is relatively high; for H2O2 formed: substrates marked * only with a relatively high concentration of the enzyme, -- = no activity; for hydrogen peroxide produced per mole of the substrate / time to completion of the reaction: pH 5.5, 35° C., about 0.05 unit of enzyme (about 15 units for N8-acetylspermidine)
[6] = tested on: polyamine oxidase AT-1 followed by putrescine oxidase; assay: Two-step reaction: polyamine oxidase AT-1, then putrescine oxidase; assay type: biochemical; details: for absorbance after the first step / increment of absorbance in the second step / absorbance after the second step: 505 nm; for absorbance after the first step: AT-1 0.05 unit (about 5 units for acetylspermine and N1-acetylspermidine), 0.5 ml of 400 μM substrate in 2.5 ml; for increment of absorbance in the second step: after addition of putrescine oxidase; for absorbance after the second step: putrescine oxidase 0.5 unit, pH 8-9, 5 minutes; for hydrogen peroxide produced per mole of the substrate in the first step: polyamine oxidase AT-1; for hydrogen peroxide produced in the second step: putrescine oxidase acting on the putrescine produced in the first step
polyamine oxidase AT-1 [7] = assay: Enzymatic oxidative decomposition by polyamine oxidase AT-1, colorimetric determination of hydrogen peroxide; assay type: biochemical; details: for putrescine formed / H2O2 formed: Table 1, substrates marked * only with a relatively high concentration of the enzyme; for H2O2 formed: -- = no activity; for hydrogen peroxide produced per mole of the substrate / time to completion of the reaction: pH 6.5, 35° C., 0.05 unit of enzyme (2 units for acetylspermine); for Activity of the enzyme on the substrate: spermine and spermidine at low enzyme concentration, acetylspermine and N1-acetylspermidine when the concentration of the enzyme is increased
[8] = tested on: polyamine oxidase PC-3 followed by acetylputrescine oxidase; assay: Two-step reaction: polyamine oxidase PC-3, then acetylputrescine oxidase; assay type: biochemical
putrescine oxidase [9] = biological target: T1, putrescine oxidase; assay: Enzymatic oxidative decomposition by putrescine oxidase, colorimetric determination of hydrogen peroxide; assay type: biochemical; details: for H2O2 formed: Table 1, -- = no activity; for hydrogen peroxide produced per mole of the substrate / time to completion of the reaction: borate buffer pH 8.5, 35° C., about 0.5 unit of enzyme

Molecule: NCCCN [1,3-diaminopropane]
Substrate specificity (putrescine oxidase [1]): inactive

Molecule: O=C(O)CI [monoiodoacetic acid]
Inhibitors (polyamine oxidase PC-3 [2]): inhibition

Molecule: NCCCNCCCCNCCCN [spermine]
absorbance after the first step [3]: 1.00
increment of absorbance in the second step [3]: 0.50
absorbance after the second step [3]: 1.50
hydrogen peroxide produced per mole of the substrate in the first step [3]: 2 mol
hydrogen peroxide produced per mole of the substrate in the second step [3]: 1 mol
Enzymatic activity: products per mole of the substrate (polyamine oxidase AT-1 [4]): 1 mole of putrescine and each 2 moles of 3-aminopropanal and hydrogen peroxide
Substrate specificity (polyamine oxidase AT-1 [4]): active
Activity of the enzyme on the substrate (polyamine oxidase PC-3 [5]): active
putrescine formed (polyamine oxidase PC-3 [5]; Table 1): 1 moles per mole of the substrat
H2O2 formed (polyamine oxidase PC-3 [5]; Table 1): 2 moles per mole of the substrat
hydrogen peroxide produced per mole of the substrate (polyamine oxidase PC-3 [5]): 2 mol
time to completion of the reaction (polyamine oxidase PC-3 [5]): ≤ 5 min
Substrate specificity (putrescine oxidase [1]): inactive
absorbance after the first step [6]: 1.00
increment of absorbance in the second step [6]: 0.50
absorbance after the second step [6]: 1.50
hydrogen peroxide produced per mole of the substrate in the first step [6]: 2 mol
hydrogen peroxide produced in the second step [6]: 1 mol
absorbance at completion of the reaction (polyamine oxidase AT-1 [7]; 505 nm, 0.5 ml of 400 μM substrate in 2.5 ml, pH 6.5, 35° C., 0.05 unit of enzyme): 1.00
putrescine formed (polyamine oxidase AT-1 [7]): 1 moles per mole of the substrat
H2O2 formed (polyamine oxidase AT-1 [7]): 2 moles per mole of the substrat
hydrogen peroxide produced per mole of the substrate (polyamine oxidase AT-1 [7]): 2 mol
time to completion of the reaction (polyamine oxidase AT-1 [7]): ≤ 5 min
Activity of the enzyme on the substrate (polyamine oxidase AT-1 [7]): active
Enzymatic activity: products per mole of the substrate (polyamine oxidase PC-3 [2]): 1 mole of putrescine and each 2 moles of 3-aminopropanal and hydrogen peroxide
Substrate specificity (polyamine oxidase PC-3 [2]): active

Activity of the enzyme on the substrate (polyamine oxidase PC-3 [5]): active
acetylputrescine formed (polyamine oxidase PC-3 [5]; Table 1, relatively high concentration of the enzyme): 1 moles per mole of the substrat
H2O2 formed (polyamine oxidase PC-3 [5]; Table 1): 1 moles per mole of the substrat
hydrogen peroxide produced per mole of the substrate (polyamine oxidase PC-3 [5]): 1 mol
time to completion of the reaction (polyamine oxidase PC-3 [5]): ≤ 10 min
absorbance after the first step ([8]; 505 nm, PC-3 about 15 units, pH 5.5, 0.5 ml of 400 μM substrate in 2.5 ml): 0.500
absorbance after the second step ([8]; 505 nm, acetylputrescine oxidase about 0.5 unit, pH about 7.5, about 10 minutes): 1.000
increment of absorbance in the second step ([8]; 505 nm, after addition of acetylputrescine oxidase): 0.500
hydrogen peroxide produced per mole of the substrate in the second step ([8]; acetylputrescine oxidase): 1 mol
hydrogen peroxide produced per mole of the substrate in the first step ([8]; polyamine oxidase PC-3): 1 mol
Molecule: CC(=O)NCCCCNCCCN [N^8 -acetylspermidine]

absorbance after the first step [3]: 0.50
increment of absorbance in the second step [3]: 0.50
absorbance after the second step [3]: 1.00
hydrogen peroxide produced per mole of the substrate in the first step [3]: 1 mol
hydrogen peroxide produced per mole of the substrate in the second step [3]: 1 mol
H2O2 formed (putrescine oxidase [9]): 1 moles per mole of the substrat
hydrogen peroxide produced per mole of the substrate (putrescine oxidase [9]): 1 mol
time to completion of the reaction (putrescine oxidase [9]): ≤ 10 min
Activity of the enzyme on the substrate (polyamine oxidase PC-3 [5]): active
putrescine formed (polyamine oxidase PC-3 [5]; Table 1): 1 moles per mole of the substrat
H2O2 formed (polyamine oxidase PC-3 [5]; Table 1): 1 moles per mole of the substrat
hydrogen peroxide produced per mole of the substrate (polyamine oxidase PC-3 [5]): 1 mol
time to completion of the reaction (polyamine oxidase PC-3 [5]): ≤ 10 min
absorbance after the first step [6]: 0.50
increment of absorbance in the second step [6]: 0.50
absorbance after the second step [6]: 1.00
hydrogen peroxide produced per mole of the substrate in the first step [6]: 1 mol
hydrogen peroxide produced in the second step [6]: 1 mol
putrescine formed (polyamine oxidase AT-1 [7]): 1 moles per mole of the substrat
H2O2 formed (polyamine oxidase AT-1 [7]): 1 moles per mole of the substrat
hydrogen peroxide produced per mole of the substrate (polyamine oxidase AT-1 [7]): 1 mol
time to completion of the reaction (polyamine oxidase AT-1 [7]): ≤ 5 min
Activity of the enzyme on the substrate (polyamine oxidase AT-1 [7]): active
Molecule: NCCCCNCCCN [spermidine]
Substrate specificity (polyamine oxidase AT-1 [4]; oxidation with formation of hydrogen peroxide): active
Enzymatic activity: products per mole of the substrate (polyamine oxidase AT-1 [4]; polyamine oxidase AT-1): each 1 mole of putrescine, 3-aminopropanal and hydrogen peroxide
Enzymatic activity: products per mole of the substrate (putrescine oxidase [1]): each 1 mole of 1,3-diaminopropane, 4-aminobutanal and hydrogen peroxide
Substrate specificity (putrescine oxidase [1]): active
Enzymatic activity: products per mole of the substrate (polyamine oxidase PC-3 [2]; polyamine oxidase PC-3): each 1 mole of putrescine, 3-aminopropanaland hydrogen peroxide
Substrate specificity (polyamine oxidase PC-3 [2]; polyamine oxidase PC-3): active

Molecule: O=C(O)c1cc[c]([Hg][Cl])cc1 [PCMB]
Inhibitors (polyamine oxidase PC-3 [2]; spermine as the substrate): inhibition

Molecule: NCCCCN [putrescine]
H2O2 formed (putrescine oxidase [9]): 1 moles per mole of the substrat
hydrogen peroxide produced per mole of the substrate (putrescine oxidase [9]): 1 mol
time to completion of the reaction (putrescine oxidase [9]): ≤ 5 min
Enzymatic activity: products per mole of the substrate (putrescine oxidase [1]): each 1 mole of 4-aminobutanal, hydrogen peroxide and ammonia
Substrate specificity (putrescine oxidase [1]): active

Molecule: silver
Inhibitors (polyamine oxidase AT-1 [4]; polyamine oxidase AT-1): strong inhibition
Inhibitors (polyamine oxidase PC-3 [2]; spermidine as the substrate): inhibition
Inhibitors (polyamine oxidase PC-3 [2]; spermine as the substrate): inhibition
